In patent US20220354833A1, “ALVELESTAT FOR USE IN THE TREATMENT OF GRAFT REJECTION, BRONCHIOLITIS OBLITERANS SYNDROME AND GRAFT VERSUS HOST DISEASE” (MEREO BIOPHARMA 4 LIMITED, priority 2019, published 2022):
Values joined by “and” are separate entries in the source; they are usually repeats but may differ in a detail not shown here. Equal values may be shown once. “Also recorded” adds a separate entry of the source. Read-outs that look alike come from different tables or passages of the source.

What was measured:
[1] = test system: murine model of GVHD; format: in vivo
[2] = biological target: T1, human NE (Homo sapiens, UniProt P08246); details: read-out: binding affinity KD; cited from earlier work
T1 sequence (P08246 30-267): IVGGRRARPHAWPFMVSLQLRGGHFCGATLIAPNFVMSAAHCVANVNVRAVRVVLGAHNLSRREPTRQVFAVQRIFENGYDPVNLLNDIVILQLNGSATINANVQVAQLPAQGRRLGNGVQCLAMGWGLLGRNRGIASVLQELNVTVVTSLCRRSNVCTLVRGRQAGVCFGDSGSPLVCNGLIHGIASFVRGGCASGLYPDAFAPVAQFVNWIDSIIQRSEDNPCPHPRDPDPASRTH

[3] = test system: patients with BOS and chronic GVHD after HCT
[4] = biological target: T1, human NE; details: cited from earlier work
[5] = biological target: T2, murine NE (Mus musculus, UniProt Q3UP87); details: cited from earlier work
T2 sequence (Q3UP87 27-265): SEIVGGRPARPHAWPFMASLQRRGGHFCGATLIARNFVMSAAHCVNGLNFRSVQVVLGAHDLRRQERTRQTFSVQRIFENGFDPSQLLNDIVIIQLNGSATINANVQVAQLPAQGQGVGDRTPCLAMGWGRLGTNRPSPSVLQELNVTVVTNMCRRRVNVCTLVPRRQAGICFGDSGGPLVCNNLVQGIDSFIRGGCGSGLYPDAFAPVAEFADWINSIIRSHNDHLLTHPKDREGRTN

[6] = biological target: T3, NE (Homo sapiens, UniProt P08246); details: whole-blood assay; cited from earlier work
[7] = biological target: T3, NE; details: cell-associated assay; cited from earlier work

Cc1c(-c2ccnn2C)cc(C(=O)NCc2ccc(S(C)(=O)=O)cn2)c(=O)n1-c1cccc(C(F)(F)F)c1 [alvelestat, N-{[5-(methanesulfonyl)pyridin-2-yl]methyl}-6-methyl-5-(1-methyl-1H-pyrazol-5-yl)-2-oxo-1-[3-(trifluoromethyl)phenyl]-1,2-dihydropyridine-3-carboxamide]
histological scoring of GI GVHD ([1]; 20 mg/kg diet vs T2e6, sacrificed Day 4, blinded pathologist, n=5/group, p=0.08, FIG. 4): trend toward increased pathology in the T2e6 group; also recorded: markedly less GVHD
survival ([1]; T-cell dose experiment, 20 mg/kg in pre-mixed diet pellets, vs 2x10^6 T cells alone, p<0.001, n=5/group, FIG. 2A, 20 mg/kg): significantly improved survival; also recorded: better survival
toxicity in skin or liver (histology) ([1]; mice receiving T2e6+20 mg/kg diet, Day 4): no toxicity was observed
survival ([1]; powder mixed with wet food, days -1 to 45, TCDBM+T2e6+20 mg/kg wet food vs TCDBM+T2e6, log-rank p=0.01, FIG. 1B): significant improvements in survival
survival ([1]; pre-mixed diet pellets, days -1 to 45, TCDBM+T2e6+20 mg/kg diet vs TCDBM+T2e6, log-rank p=0.001, FIG. 1A): significant improvements in survival
dose-response in improvement in survival, body weight or GVHD score ([1]; three doses tested: 20, 50, 200 mg/kg per day, FIG. 1C-1F): does not appear to be a dose-response
Kd [2]: 0.0095 µM
LSS score for lung/breathing at C5 ([3]; Lee cGVHD Symptom Scale, C5 = continuation dosing period up to 6 months, individual patients #1-7): 7 and 3 (2×) and 11 and 2 and 5 and 4
LSS score for lung/breathing at the end of treatment ([3]; Lee cGVHD Symptom Scale, individual patients #1-7): 8 and 2 and 11 and 3 and 7 and 5 and 1
patients with progressive disease ([3]; NIH chronic GVHD consensus criteria, decline in FEV1 after pneumonia, of 7 patients): 1 patient
grade 2 adverse event possibly related: ALT or AST elevation ([3]; human, in vivo): 3 patients
grade 2 adverse event possibly related: increased creatinine ([3]; human, in vivo): 3 patients
grade 2 adverse event possibly related: upper respiratory infection ([3]; human, in vivo): 3 patients
grade 3 adverse event possibly related: gastroenteritis and vomiting requiring hospitalization ([3]; human, in vivo): 1 patient
grade 3 adverse event possibly related: pneumonia ([3]; human, in vivo): 1 patient
patients requiring dose interruptions ([3]; human, in vivo): Four
patients requiring dose reduction ([3]; human, in vivo): 1
patients who discontinued treatment prior to end of study ([3]; human, in vivo): Four
maximum dose to which all 7 patients tolerated dose escalation ([3]; human, in vivo, po, 8 weeks): 240 mg twice daily
End of treatment FEV1 % predicted ([3]; individual patients (patient #1-7)): 47% and 55% and 40% and 46% and 38% and 41% and 73%
patients with improvement in Lee chronic GVHD symptom scale lung score ([3]; of 7 patients, 2 during the 6 month treatment period, 2 at end of treatment): 4 patients
maximum tolerated dose (MTD) ([3]; oral, intra-patient escalation 60 to 240 mg twice daily, 7 patients): not reached
improvement in FEV1 ([3]; seen in 2 of 7 patients): 9%
Ki [4]: 0.0094 µM
pIC50 [4]: 7.9
reversibility of inhibition [4]: rapidly reversible
crossover potency for NE from other species ([5]; NE from other species, including mice): good crossover potency
pIC50 ([5]; murine NE): 6.5
IC50 [6]: 0.044 µM
pIC50 [6]: 7.36
IC50 [7]: 0.048 µM
pIC50 [7]: 7.32
